Drawing on paper PMC12724231, “APC24-7, a covalent combination of boronic acid and chelator moieties, restores β-lactam efficiency against metallo-β-lactamase-producers” (mSphere, 2025), this text covers MIC for six molecules.

SMILES strings stand for the structures. Read-outs that look alike come from different tables or passages of the source. Some results are limits rather than exact numbers.

Test in all cases: microbe, parasite or virus in culture
Assay [1] relates to T1, Escherichia coli MP32-64.
T1 construct: MP32-64
Set-up: species or system E. coli E. cloni 10G; Microdilution MIC of inhibitor alone in LB, OD600 read-out, E. coli 10G without or with empty vector. The note with it: MP3264, inhibitor alone. The method, then:
(§1) Susceptibility testing of isogenic E. coli E. cloni 10G (Table 2) was determined by both the microdilution assay. […] Overnight cultures were prepared in LB supplemented with 25 mg/L chloramphenicol at 37°C under shaking at 700 rpm. The overnight cultures were diluted in PBS to 10^6 CFU/ mL, followed by inoculation in LB to ~10^5 CFU in 384-well plates (VWR, Radnor, PA, USA). Plates were prepared with twofold increasing concentrations of meropenem and cefepime ([…], respectively) to a total inoculated volume of 100 µL Plates were incubated at 37°C without shaking for 19–21 h. OD600 was determined in a SpectraMax Plus plate reader (Molecular Devices).

Assay [2] relates to T2, Escherichia coli MP21-05.
T2 construct: MP21-05
Set-up: species or system E. coli E. cloni 10G; Microdilution MIC of inhibitor alone in LB, OD600 read-out, E. coli 10G without or with empty vector. The note with it: MP2105, inhibitor alone. The method, then:
as §1

The subject of assay [3] is T3, Escherichia coli #36.
T3 construct: #36
Details: species or system clinical isolates of E. coli and K. pneumoniae; Broth microdilution MIC (CLSI), cation-adjusted Mueller-Hinton broth, visual reading, antibiotic alone against clinical isolates. The following applies: Escherichia coli, antibiotic alone. The method, then:
(§2) MICs for clinical isolates were determined in a broth microdilution assay according to Clinical and Laboratory Standards Institute (CLSI) ([75]), using cation-adjusted Mueller-Hinton broth (Thermo Fisher Scientific, Lenexa, USA). The direct colony suspension method was utilized by preparing an inoculum of an OD600 0.17, except for E. coli #36 in which 0.10 was used, which equated to a concentration of 10^8 colony-forming units (CFU) per mL. Inoculum controls were included for all assays ([76]). MICs for all clinical isolates were determined alone and in combination with inhibitors for all BLs tested, either using manually prepared plates of aztreonam, cefepime, ceftazidime, and amoxicillin or premade plates of meropenem (Sensititre), and all antibiotics tested at a twofold increasing concentration of 0.03–64 mg/L (Table 1; Table S3). Compound APC24-7 was tested at a fixed concentration of 14, 28, and 57 µM (8, 16, or 32 mg/L) with meropenem, and for all other BLs tested at the highest inhibitor concentration to be able to compare the efficiency of the BI/BLI combinations. Taniborbactam was tested at a fixed equimolar concentration (6.5, 13, and 26 mg/L) and only evaluated with meropenem. A minimum of 2–3 replicates was performed for all combinations. Assay plates were incubated at 37°C without shaking for 16–20 h, and the results were visually interpreted in accordance with EUCAST guidelines and clinical breakpoint table version 15.0 (www.eucast.org).

The subject of assay [4] is T4, Klebsiella pneumoniae KresCPE0367.
T4 construct: KresCPE0367
Details: species or system clinical isolates of E. coli and K. pneumoniae; Broth microdilution MIC (CLSI), cation-adjusted Mueller-Hinton broth, visual reading, antibiotic alone against clinical isolates. The following applies: Klebsiella pneumoniae, KRESCPE0367, antibiotic alone. The method, then: as §2

Assay [5] concerns T5, Klebsiella pneumoniae BAA-2146.
T5 construct: ATCC BAA-2146
Set-up: species or system clinical isolates of E. coli and K. pneumoniae; Broth microdilution MIC (CLSI), cation-adjusted Mueller-Hinton broth, visual reading, antibiotic alone against clinical isolates. The following applies: Klebsiella pneumoniae, BAA2146, antibiotic alone. On the procedure:
as §2

The test system of assay [6] is T6, Klebsiella pneumoniae K46-62.
T6 construct: K46-62
Details: species or system clinical isolates of E. coli and K. pneumoniae; Broth microdilution MIC (CLSI), cation-adjusted Mueller-Hinton broth, visual reading, antibiotic alone against clinical isolates. The following applies: Klebsiella pneumoniae, K4662, antibiotic alone. On the procedure:
as §2

Assay [7] concerns T7, Escherichia coli #22.
T7 construct: #22
Details: species or system clinical isolates of E. coli and K. pneumoniae; Broth microdilution MIC (CLSI), cation-adjusted Mueller-Hinton broth, visual reading, antibiotic alone against clinical isolates. The following applies: Escherichia coli, antibiotic alone. On the procedure: as §2

The subject of assay [8] is T8, Escherichia coli #29.
T8 construct: #29
Set-up: species or system clinical isolates of E. coli and K. pneumoniae; Broth microdilution MIC (CLSI), cation-adjusted Mueller-Hinton broth, visual reading, antibiotic alone against clinical isolates. The note with it: Escherichia coli, antibiotic alone. The method, then: as §2

Assay [9] concerns T9, Klebsiella pneumoniae KresCPE0372.
T9 construct: KresCPE0372
Details: species or system clinical isolates of E. coli and K. pneumoniae; Broth microdilution MIC (CLSI), cation-adjusted Mueller-Hinton broth, visual reading, antibiotic alone against clinical isolates. The following applies: Klebsiella pneumoniae, KRESCPE0372, antibiotic alone. The method, then: as §2

Assay [10] relates to T10, Klebsiella pneumoniae K66-45.
T10 construct: K66-45
Details: species or system clinical isolates of E. coli and K. pneumoniae; Broth microdilution MIC (CLSI), cation-adjusted Mueller-Hinton broth, visual reading, antibiotic alone against clinical isolates. The following applies: Klebsiella pneumoniae, K6645, antibiotic alone. On the procedure:
as §2

Assay [11] deals with T11, Klebsiella pneumoniae KresCPE0353.
T11 construct: KresCPE0353
Details: species or system clinical isolates of E. coli and K. pneumoniae; Broth microdilution MIC (CLSI), cation-adjusted Mueller-Hinton broth, visual reading, antibiotic alone against clinical isolates. The following applies: Klebsiella pneumoniae, KRESCPE0353, antibiotic alone. The method, then:
as §2

The subject of assay [12] is T12, Escherichia coli BAA-2469.
T12 construct: ATCC BAA-2469
Details: species or system clinical isolates of E. coli and K. pneumoniae; Broth microdilution MIC (CLSI), cation-adjusted Mueller-Hinton broth, visual reading, antibiotic alone against clinical isolates. The following applies: Escherichia coli, BAA2469, antibiotic alone. The method, then: as §2

The subject of assay [13] is T13, Klebsiella pneumoniae BAA1705.
T13 construct: ATCC BAA-1705
Details: species or system clinical isolates of E. coli and K. pneumoniae; Broth microdilution MIC (CLSI), cation-adjusted Mueller-Hinton broth, visual reading, antibiotic alone against clinical isolates. The following applies: Klebsiella pneumoniae, BAA1705, antibiotic alone. On the procedure: as §2

In assay [14] the test system is T14, Klebsiella pneumoniae KresCPE0097.
T14 construct: KresCPE0097
Set-up: species or system clinical isolates of E. coli and K. pneumoniae; Broth microdilution MIC (CLSI), cation-adjusted Mueller-Hinton broth, visual reading, antibiotic alone against clinical isolates. The note with it: Klebsiella pneumoniae, KRESCPE0097, antibiotic alone. On the procedure:
as §2

[15] abbreviates: read-out: MIC APC24-7 (μM) / APC148*.
Setting [16] is: read-out: MIC APC24-7 (μM) / Taniborbactam**.
Setting [17] is: read-out: MIC FEP (mg/L) / FEP alone.
The mark [18] stands for this setting: read-out: MIC AZT (mg/L) / AZT alone.
Where [19] appears, read: read-out: MIC AMX (mg/L) / AMX alone.

As for `CN(C[C@H](O)[C@@H](O)[C@H](O)[C@H](O)CO)C(=O)c1ccc(CN(Cc2ccccn2)Cc2ccccn2)nc1` [APC148], the MIC in assay [1] (setting [15]) and in assay [2] (setting [15]) was over 906 µM throughout.
In the case of `NCCN[C@H]1CC[C@H](CC(=O)N[C@H]2Cc3cccc(C(=O)O)c3OB2O)CC1` [taniborbactam], the MIC in assay [1] (setting [16]) and in [2] (setting [16]) was over 906 µM each time.
In the case of `CO/N=C(\C(=O)N[C@@H]1C(=O)N2C(C(=O)[O-])=C(C[N+]3(C)CCCC3)CS[C@H]12)c1csc(N)n1` [cefepime], the MIC in assay [3] (setting [17]), in [4] (setting [17]), in assay [5] (setting [17]), in assay [6] (setting [17]), in assay [7] (setting [17]) and in assay [8] (setting [17]) was over 64 mg/L in each case. In addition, the MIC in assay [9] (setting [17]) is over 64 mg/L; in assay [10] (setting [17]), over 64 mg/L; in [11] (setting [17]) it was over 64 mg/L; in assay [12] (setting [17]) it was over 64 mg/L; in assay [13] (setting [17]), over 64 mg/L; in assay [14] (setting [17]), 16 mg/L.
As to `CC(C)(O/N=C(\C(=O)N[C@@H]1C(=O)N2C(C(=O)[O-])=C(C[n+]3ccccc3)CS[C@H]12)c1csc(N)n1)C(=O)O` [ceftazidime], the MIC in assay [3] (read-out: MIC), in [4] (read-out: MIC), in [5] (read-out: MIC), in assay [6] (read-out: MIC), in [7] (read-out: MIC) and in [8] (read-out: MIC) was over 64 mg/L throughout. Besides, the MIC in assay [9] (read-out: MIC) was over 64 mg/L; in [10] (read-out: MIC), over 64 mg/L; in [11] (read-out: MIC), over 64 mg/L; in [12] (read-out: MIC), over 64 mg/L; in [13] (read-out: MIC), over 64 mg/L; in assay [14] (read-out: MIC) it was 8 mg/L.
As to `C[C@H]1[C@H](NC(=O)/C(=N\OC(C)(C)C(=O)O)c2csc(N)n2)C(=O)N1S(=O)(=O)O` [aztreonam], the MIC in assay [3] (setting [18]), in assay [4] (setting [18]), in assay [5] (setting [18]), in assay [6] (setting [18]), in assay [7] (setting [18]) and in assay [8] (setting [18]) was over 64 mg/L throughout. For the same molecule, the MIC in assay [9] (setting [18]) is 32 mg/L; in assay [10] (setting [18]), over 64 mg/L; in assay [11] (setting [18]), over 64 mg/L; in assay [12] (setting [18]) it was 16 mg/L; in [13] (setting [18]), over 64 mg/L; in assay [14] (setting [18]), 64 mg/L.
As for `CC1(C)S[C@@H]2[C@H](NC(=O)[C@H](N)c3ccc(O)cc3)C(=O)N2[C@H]1C(=O)O` [amoxicillin], the MIC in [3] (setting [19]), in assay [4] (setting [19]), in [5] (setting [19]), in assay [6] (setting [19]), in assay [7] (setting [19]) and in assay [8] (setting [19]) was over 64 mg/L each time. Further, the MIC in [9] (setting [19]), in assay [10] (setting [19]), in [11] (setting [19]), in assay [12] (setting [19]), in assay [13] (setting [19]) and in assay [14] (setting [19]) was over 64 mg/L throughout.
